Results as given in US9102698B2 (CAN-FITE BIOPHARMA LTD., priority 2007, dated 2015).

Columns and labels:
[1] = Solubility study on 3-iodobenzylamine hydrochloride in synthesis solvents; type: physicochemical
Source text: 3-Iodobenzylamine hydrochloride recrystallized from protic solvents but was insoluble in aprotic organic solvents. No purity enhancement was observed during hot (reflux) slurries in aprotic organic solvents.

[2] = tested on: neutrophils; conditions: oral, mice, cited from earlier work
[3] = tested on: TNF-α and MIP-1α; conditions: in vitro; cited from earlier work
[4] = tested on: collagen and adjuvant induced arthritis (AIA); conditions: experimental animal models; cited from earlier work
[5] = tested on: A3AR; conditions: synovial and peripheral blood mononuclear cells of AIA rats, upon IB-MECA treatment; cited from earlier work
[6] = tested on: colon carcinoma; conditions: oral, nude mice; cited from earlier work
[7] = tested on: tumors (melanoma, colon carcinoma, prostate carcinoma); conditions: orally administered; syngeneic (melanoma, colon carcinoma) and xenograft (colon and prostate carcinoma) mouse models; cited from earlier work

Row | Behavior at 21 C. ([1]; IPA, 10 solvent volumes) | Behavior at reflux ([1]; IPA, 10 solvent volumes) | Behavior at 21 C. ([1]; IPAc, 10 solvent volumes) | Behavior at reflux ([1]; IPAc, 10 solvent volumes) | Behavior at 21 C. ([1]; MeCN, 5 solvent volumes) | Behavior at reflux ([1]; MeCN, 5 solvent volumes) | Behavior at 21 C. ([1]; MeOH, 1 solvent volume) | Behavior at reflux ([1]; MeOH, 1 solvent volume) | Behavior at 21 C. ([1]; THF, 10 solvent volumes) | Behavior at reflux ([1]; THF, 10 solvent volumes) | Structure (SMILES) | cytotoxic-induced myelo-toxicity [2] | production of neutrophils ([2]; via an increase in G-CSF) | production of MIP-1α [3] | production of TNF-α [3] | development of collagen and adjuvant induced arthritis [4] | A3AR level [5] | neutrophil recovery after cytotoxic drug therapy [6] | progression of colon carcinoma [6] | development of tumors [7]
1 | Insoluble | Soluble | Insoluble | Insoluble | Insoluble | Insoluble | Insoluble | Soluble | Insoluble | Insoluble | Cl.NCc1cccc(I)c1 [3-iodobeuzylamine hydrochloride, 3-iodobenzylamine hydrochloride] | – | – | – | – | – | – | – | – | –
2 | – | – | – | – | – | – | – | – | – | – | CNC(=O)[C@H]1O[C@@H](n2cnc3c(NCc4cccc(I)c4)ncnc32)[C@H](O)[C@@H]1O [IB-MECA, 1-deoxy-1-(6-{[(3-iodophenyl)methyl]amino}9H-purine-9-yl)-N-methyl-β-d-ribofuranuronamide] | protects against cytotoxic-induced myelo-toxicity | stimulates the production of neutrophils | inhibited | inhibited | preventing the development | down regulates | stimulates neutrophil recovery | inhibits progression of colon carcinoma | inhibits the development of tumors
